System: production of tumor necrosis factor (TNF) by monocytes activated with bacterial lipopolysaccharide (LPS)
Assay: Lipopolysaccharide-activated Monocyte TNF Production Assay
Assay type: cell-based
Conditions: Homo sapiens, TNF in culture supernatants by ELISA, read-out: IC50 (concentration of test compounds causing a 50% reduction in TNF production)
Protocol: Lipopolysaccharide-activated Monocyte TNF Production Assay
Test compounds were evaluated in vitro for the ability to inhibit the production of tumor necrosis factor (TNF) by monocytes activated with bacterial lipopolysaccharide (LPS). Fresh residual source leukocytes (a byproduct of plateletpheresis) were obtained from the local blood bank and peripheral blood mononuclear cells (PBMCs) were isolated by density gradient centrifugation on Ficol-Paque Plus (Pharmacia). PBMCs were suspended at 2×10^6/ml in DMEM supplemented to contain 2% FCS (10 mM), 0.3 mg/ml glutamate, 100 U/ml penicillin G and […] streptomycin sulfate (complete media). Cells were plated into Falcon flatbottom 96 well culture plates (200 μl/well) and cultured overnight at 37° C. and 6% CO2. Nonadherent cells were removed by washing with 200 μl/well of fresh medium. Wells containing adherent cells (˜70% monocytes) were replenished with 100 μl of fresh medium.
Preparation of Test Compound Stock Solutions
Test compounds were dissolved in […]. Compound stock solutions were prepared to an initial concentration of […]. Stocks were diluted initially to 20-200 μM in complete media. Nine two-fold serial dilutions of each compound were then prepared in complete medium.
Treatment of Cells with Test Compounds and Activation of TNF Production with Lipopolysaccharide
One hundred microliters of each test compound dilution were added to microtiter wells containing adherent monocytes and 100 μl complete medium. Monocytes were cultured with test compounds for 60 min at which time 25 μl of complete medium containing 30 ng/ml lipopolysaccharide from E. coli K532 were added to each well. Cells were cultured an additional 4 hrs. Culture supernatants were then removed and TNF present in the supernatants was quantified using an ELISA.
Flat bottom 96 well Coming High Binding ELISA plates were coated overnight (4° C.) with 150 μL/well of 3 μg/ml murine anti-human TNFa MAb (R&D Systems #MAB210). Wells were then blocked 1 h at room temperature with 200 μL/well of CaCl2-free ELISA buffer supplemented to contain 20 mg/ml BSA (standard ELISA buffer: […], 150 mM NaCl, 2 mM CaCl2, 0.15 mM thimerosal, pH 7.4). Plates were washed and replenished with 100 μl of test supernatants (diluted 1:3) or standards. Standards consisted of eleven 1.5-fold serial dilutions from a stock of 1 ng/ml recombinant human TNF (R&D Systems). Plates were incubated at room temperature for 1 h on orbital shaker (300 rpm), washed and replenished with 100 μl/well of 0.5 jig/ml goat anti-human TNFa (R&D systems #AB-210-NA) biotinylated at a 4:1 ratio. Plates were incubate for 40 min, washed and replenished with 100 μl/well of alkaline phosphatase-conjugated streptavidin (Jackson ImmunoResearch #016-050-084) at 0.02 μg/ml. Plates were incubated 30 min, washed and replenished with 200 μl well of 1 mg/ml of p-nitrophenyl phosphate. After 30 min, plates were read at 405 nm on a Vmax plate reader.
Standard curve data were fit to a second order polynomial and unknown TNF-a concentrations determined from their OD by solving this equation for concentration. TNF concentrations were then plotted Vs test compound concentration using a second order polynomial. This equation was then used to calculate the concentration of test compounds causing a 50% reduction in TNF production.

**Q.** For `NCCCCCC(=O)Nc1ccc2c(-c3ccncc3)c(-c3ccc(F)cc3)[nH]c2n1` [Compound 79, 6-(6′-amino-1′-oxo-hexylamino)-3-(4-pyridyl)-2-(4-fluorophenyl)-7-aza-indole], which IC50 is on record?
**A.** < 20 µM

**Q.** Which IC50 does the source give for `CCCCC(CC)CNc1ccc2c(-c3ccncc3)c(-c3ccc(F)cc3)[nH]c2n1` (racemic) [Compound 148, 6-(2′(R,S)-ethylhexylamino)-3-(4-pyridyl)-2-(4-fluorophenyl)-7-aza-indole] here?
**A.** < 20 µM

**Q.** With `NC(=O)NCCC[C@H](N)C(=O)Nc1ccc2c(-c3ccncc3)c(-c3ccc(F)cc3)[nH]c2n1` [Compound 65, 6-(5′-ureido-1′-oxo-2′-aminopentylamino)-3-(4-pyridyl)-2-(4-fluorophenyl)-7-aza-indole] as the compound, how does the IC50 read?
**A.** < 20 µM

**Q.** For `CC(C)(C)OC(=O)NCCC[C@H](NC(=O)OC(C)(C)C)C(=O)Nc1ccc2c(-c3ccncc3)c(-c3ccc(F)cc3)[nH]c2n1` [Compound 68, 6-(5′-t-butoxycarbonylamino-1′-oxo-2′-t-butoxycarbonylaminopentylamino)-3-(4-pyridyl)-2-(4-fluorophenyl)-7-aza-indole], which IC50 is on record?
**A.** < 20 µM

**Q.** With `N[C@@H](Cc1cccnc1)C(=O)Nc1ccc2c(-c3ccncc3)c(-c3ccc(F)cc3)[nH]c2n1` [Compound 111, 6-(3′-(3-pyridyl)-1′-oxo-2′S-aminopropylamino)-3-(4-pyridyl)-2-(4-fluorophenyl)-7-aza-indole] as the compound, how does the IC50 read?
**A.** < 20 µM

**Q.** For `O=C(Nc1ccc2c(-c3ccncc3)c(-c3ccc(F)cc3)[nH]c2n1)[C@@H]1Cc2ccccc2CN1` [Compound 115, 6-(3(S) 1′,2′,3′,4′-tetrahydro-3′-isoguinolinyloxoamino)-3-(4-pyridyl)-2-(4-fluorophenyl)-7-aza-indole], which IC50 is on record?
**A.** < 20 µM

**Q.** `CC(C)CCNc1ccc2c(-c3ccncc3)c(-c3ccc(F)cc3)[nH]c2n1` [Compound 152, 6-(isoamylamino)-3-(4-pyridyl)-2-(4-fluorophenyl)-7-aza-indole] was tested. Which IC50 did it give?
**A.** < 20 µM

**Q.** `N[C@@H](CCc1ccccc1)C(=O)Nc1ccc2c(-c3ccncc3)c(-c3ccc(F)cc3)[nH]c2n1` [Compound 139, 6-(4′-phenyl-1′-oxo-2′-(L)-aminobutylamino)-3-(4-pyridyl)-2-(4-fluorophenyl)-7-aza-indole] was tested. Which IC50 did it give?
**A.** < 20 µM

**Q.** Which IC50 does the source give for `N[C@@H](Cc1cccs1)C(=O)Nc1ccc2c(-c3ccncc3)c(-c3ccc(F)cc3)[nH]c2n1` [Compound 133, 6-(3′-(2-thienyl)-1′-oxo-2′-(L)-aminopropylamino)-3-(4-pyridyl)-2-(4-fluorophenyl)-7-aza-indole] here?
**A.** < 20 µM

**Q.** Which IC50 does the source give for `N[C@@H](Cc1ccccc1)C(=O)Nc1ccc2c(-c3ccncc3)c(-c3ccc(F)cc3)[nH]c2n1` [Compound 125, 6-(3′-phenyl-1′-oxo-2′-(L)-aminopropylamino)-3-(4-pyridyl)-2-(4-fluorophenyl)-7-aza-indole] here?
**A.** < 20 µM

**Q.** Which IC50 does the source give for `Fc1ccc(-c2[nH]c3nc(NCc4cccs4)ccc3c2-c2ccncc2)cc1` [Compound 154, 6-(2′-thienylmethylamino)-3-(4-pyridyl)-2-(4-fluorophenyl)-7-aza-indole] here?
**A.** < 20 µM

**Q.** `C[C@@H](C(=O)Nc1ccc2c(-c3ccncc3)c(-c3ccc(F)cc3)[nH]c2n1)N(C)C` [Compound 102, 6-(2S′-dimethylamino-1′-oxo-propylamino)-3-(4-pyridyl)-2-(4-fluorophenyl)-7-aza-indole] was tested. Which IC50 did it give?
**A.** < 1 µM

**Q.** How did the IC50 turn out when `NCCCCC(=O)Nc1ccc2c(-c3ccncc3)c(-c3ccc(F)cc3)[nH]c2n1` [Compound 77, 6-(5′-amino-1′-oxo-pentylamino)-3-(4-pyridyl)-2-(4-fluorophenyl)-7-aza-indole] was run?
**A.** < 20 µM

**Q.** With `NCC(=O)Nc1ccc2c(-c3ccncc3)c(-c3ccc(F)cc3)[nH]c2n1` [Compound 92, 6-(2′-amino-1′-oxo-ethylamino)-3-(4-pyridyl)-2-(4-fluorophenyl)-7-aza-indole] as the compound, how does the IC50 read?
**A.** < 1 µM

**Q.** How did the IC50 turn out when `CC(C)(C)CNc1ccc2c(-c3ccncc3)c(-c3ccc(F)cc3)[nH]c2n1` [Compound 151, 6-(2′,2′-dimethylpropylamino)-3-(4-pyridyl)-2-(4-fluorophenyl)-7-aza-indole] was run?
**A.** < 20 µM

**Q.** For `CC(C)(C)C[C@H](N)C(=O)Nc1ccc2c(-c3ccncc3)c(-c3ccc(F)cc3)[nH]c2n1` [Compound 75, 6-(4′,4′-Dimethyl-1′-oxo-2′-aminopentylamino)-3-(4-pyridyl)-2-(4-fluorophenyl)-7-aza-indole], which IC50 is on record?
**A.** < 20 µM

**Q.** For `NCCC(=O)Nc1ccc2c(-c3ccncc3)c(-c3ccc(F)cc3)[nH]c2n1` [Compound 91, 6-(3′-amino-1′-oxo-propylamino)-3-(4-pyridyl)-2-(4-fluorophenyl)-7-aza-indole], which IC50 is on record?
**A.** < 20 µM

**Q.** With `CC(C)(C)OC(=O)N1CCC(C(=O)Nc2ccc3c(-c4ccncc4)c(-c4ccc(F)cc4)[nH]c3n2)CC1` [Compound 106, 6-(4′-N-t-butoxycarbonylisonipecotylamino)-3-(4-pyridyl)-2-(4-fluorophenyl)-7-aza-indole] as the compound, how does the IC50 read?
**A.** < 1 µM

**Q.** With `CCNc1ccc2c(-c3ccncc3)c(-c3ccc(F)cc3)[nH]c2n1` [Compound 156, 6-(ethylamino)-3-(4-pyridyl)-2-(4-fluorophenyl)-7-aza-indole] as the compound, how does the IC50 read?
**A.** < 20 µM

**Q.** `O=C(Nc1ccc2c(-c3ccncc3)c(-c3ccc(F)cc3)[nH]c2n1)[C@@H]1CCCN1` [Compound 101, 6-(2′-L-prolylamino)-3-(4-pyridyl)-2-(4-fluorophenyl)-7-aza-indole] was tested. Which IC50 did it give?
**A.** < 20 µM

**Q.** For `CN[C@@H](C)C(=O)Nc1ccc2c(-c3ccncc3)c(-c3ccc(F)cc3)[nH]c2n1` [Compound 127, 6-(1′-oxo-2′S-N-methylaminopropylamino)-3-(4-pyridyl)-2-(4-fluorophenyl)-7-aza-indole], which IC50 is on record?
**A.** < 1 µM

**Q.** With `CC(O)[C@H](N)C(=O)Nc1ccc2c(-c3ccncc3)c(-c3ccc(F)cc3)[nH]c2n1` (stereo partly drawn) [Compound 85, 6-(3′-hydroxy-1′-oxo-2′-aminobutylamino)-3-(4-pyridyl)-2-(4-fluorophenyl)-7-aza-indole] as the compound, how does the IC50 read?
**A.** < 20 µM

**Q.** How did the IC50 turn out when `C[C@@H](N)C(=O)Nc1ccc2c(-c3ccncc3)c(-c3ccc(F)cc3)[nH]c2n1` [Compound 131, 6-(1′-oxo-2′R-aminopropylamino)-3-(4-pyridyl)-2-(4-fluorophenyl)-7-aza-indole] was run?
**A.** < 1 µM

**Q.** `CC(C)[C@H](N)C(=O)Nc1ccc2c(-c3ccncc3)c(-c3ccc(F)cc3)[nH]c2n1` [Compound 73, 6-(3′-Methyl-1′-oxo-2′-aminobutylamino)-3-(4-pyridyl)-2-(4-fluorophenyl)-7-aza-indole] was tested. Which IC50 did it give?
**A.** < 20 µM

**Q.** `O=C(CCN1C(=O)c2ccccc2C1=O)Nc1ccc2c(-c3ccncc3)c(-c3ccc(F)cc3)[nH]c2n1` [Compound 98, 6-(3′-N-phthaloyl-1′-oxo-propylamino)-3-(4-pyridyl)-2-(4-fluorophenyl)-7-aza-indole] was tested. Which IC50 did it give?
**A.** < 20 µM

**Q.** For `Fc1ccc(-c2[nH]c3ccccc3c2-c2ccncc2)cc1` [Compound 3, 3-(4-pyridyl)-2-(4-fluorophenyl)indole], which IC50 is on record?
**A.** < 20 µM

**Q.** `[N-]=[N+]=Nc1ccc(C[C@H](N)C(=O)Nc2ccc3c(-c4ccncc4)c(-c4ccc(F)cc4)[nH]c3n2)cc1` [Compound 135, 6-(3′-(4-azidophenyl)-1′-oxo-2′S-aminopropylamino)-3-(4-pyridyl)-2-(4-fluorophenyl)-7-aza-indole] was tested. Which IC50 did it give?
**A.** < 20 µM

**Q.** `CC(C)COC(=O)n1c(-c2ccc(F)cc2)c(-c2ccncc2)c2ccc(NC(=O)CN)nc21` [Compound 143, 6-(2′-amino-1′-oxo-ethylamino)-3-(4-pyridyl)-2-(4-fluorophenyl)-1-isobutoxycarbonyl-7-aza-indole] was tested. Which IC50 did it give?
**A.** < 20 µM

**Q.** How did the IC50 turn out when `CN(CC(=O)Nc1ccc2c(-c3ccncc3)c(-c3ccc(F)cc3)[nH]c2n1)C(=O)OC(C)(C)C` [Compound 104, 6-(2′-N-methyl-t-butoxycarbonylamino-1′-oxo-ethylamino)-3-(4-pyridyl)-2-(4-fluorophenyl)-7-aza-indole] was run?
**A.** < 1 µM

**Q.** Which IC50 does the source give for `N[C@@H](Cc1ccc(I)cc1)C(=O)Nc1ccc2c(-c3ccncc3)c(-c3ccc(F)cc3)[nH]c2n1` [Compound 71, 6-(3′-(4-iodophenyl)-1′-oxo-2′-aminopropylamino)-3-(4-pyridyl)-2-(4-fluorophenyl)-7-aza-indole] here?
**A.** < 1 µM

— US6605634B2 (Amgen, Inc., priority 1996, dated 2003)
